Results from paper PMC6829886, “Inhibition of Non-Small Cell Lung Cancer Cells by Oxy210, an Oxysterol-Derivative that Antagonizes TGFβ and Hedgehog Signaling” (Cells, 2019).

Columns and labels:
[1] = test system: GLI1, GLI2 mRNA in H2030 NSCLC cells; experiment: GLI mRNA expression in H2030 cells (Q-RT-PCR); assay type: cell-based, human; settings: 5 μM, 72 h
Description: (§1) Total RNA was extracted with the RNeasy Plus Mini Kit from Qiagen (Hilden, Germany) according to the manufacturer’s instructions. One microgram of RNA was reverse-transcribed using an iScript Reverse Transcription Supermix from Bio-Rad Laboratories (Hercules, CA, USA) to make single-stranded cDNA. The cDNAs were then mixed with Qi SYBR Green Supermix (Bio-Rad) for quantitative RT-PCR assay using a Bio-Rad I-cycler IQ quantitative thermocycler. All PCR samples were prepared in triplicate wells in a 96-well plate. After 40 cycles of PCR, melt curves were examined in order to ensure primer specificity. Fold changes in gene expression were calculated using the ΔΔCt method. […]
Figure 6 Inhibition of Glis and SHH expression in Non-Small Cell Lung Cancer (NSCLC) cells. A549 (a) and H2030 (b) cells were treated with Oxy210 in RPMI 1640 containing 5% FBS for 72 h, then RNA was extracted and analyzed by Q-RT-PCR for the expression of the indicated genes and normalized to GAPDH expression. […] After 48 h, RNA was extracted and analyzed by Q-RT-PCR for the expression of Gli1 and Shh and normalized to GAPDH expression. […]

H2030 cells = experiment: TGFβ-induced EMT gene expression in H2030 cells; assay type: cell-based, human; settings: 48 h
Description: as §1, with “method. Primers used for mouse were as follows: Oaz1 (5′-CCACTGCTTCGCCAGAGAG-3′) and (5′-CCCGGACCCAGGTTACTA-3′), Gli1 (5′- […]-3′ and 5′- GCT GATCCAGCCTAAGGTTCTC-3′), Ptch1 (5′-CCATCGGCGACAAGAACC-3′ and 5′-[…]-3′), Thbs1 (5′-[…]-3′ and 5′-CGGGGATCAGGTTGGCATT-3′), Cryab (5′-[…]-3′ and 5′-[…]-3′), Egr2 (5′-[…]-3′ and 5′-[…]-3′), CTGF (5′-GGGCCTCTTCTGCGATTTC-3′ and 5′-[…]-3′).” for “method.”
Figure 8 Inhibition of TGFβ-induced EMT in NSCLC cells. […] After 48 h, RNA was extracted and analyzed by Q-RT-PCR for the expression of the genes as indicated and normalized to GAPDH expression. […]

C[C@]12CC[C@H]3[C@@H](CC=C4C[C@@H](O)CC[C@@]43C)[C@@H]1CC[C@@H]2[C@](C)(O)CCc1cccnc1 [Oxy210, (3S,8S,9S,10R,13S,14S,17S)-17-((R)-2-hydroxy-4-(pyridin-3-yl)butan-2-yl)-10,13-dimethyl-2,3,4,7,8,9,10,11,12,13,14,15,16,17-tetradecahydro-1H-cyclopenta[a]phenanthren-3-ol]
mRNA expression of GLI1 and GLI2 [1]: significantly inhibited | genes associated with TGFβ-induced EMT (H2030 cells): complete suppression
